Assay results from US11905268B2, “Anthranilic acid derivatives and their use in the treatment of human cancers” (UNIVERSITY OF CENTRAL FLORIDA RESEARCH FOUNDATION, INC., priority 2018, dated 2024).
Like-named read-outs stand apart in the source and are kept apart here.

What was measured:
[1] = test system: L3.6pl cells; assay: cells; assay type: cell-based; details: for IC50: Homo sapiens, L3.6pl; for L3.6pl MTC: maximum tolerated concentration where cells are >90% viable
[2] = test system: L3.6pl cells; assay: DFMO/Spd rescue assay in L3.6pl cells; assay type: cell-based, human; details: for EC value in DFMO/Spd rescue assay: Table 9, ECx = y: x% effect at y μM
Protocol: In another example in the DFMO spermidine (Spd) rescue assay an EC38=8 means that the PTI molecule at 8 μM was able to block 38% of the entry of spermidine into DFMO treated L3.6 pl cells after 72 h incubation time at 37° C. Another explanation, is that the PTI was able to disrupt […] of the intracellular trafficking of Spd that leads to cell rescue. […] Since both Ant44 and Spermidine are polyamine-based systems, cells likely use one mode of the polyamine transport (basal or obligate) in each assay.
(§1) The higher EC value denotes the compound is giving a relative % growth of L3.6 pl cells consistent with inhibiting either Ant44 uptake or blocking the uptake of the rescuing dose of spermidine. Alternatively these compounds may disrupting the intracellular trafficking of Ant44 and spermidine so they cannot reach their intended intracellular target.

[3] = test system: L3.6pl cells; assay: Ant44 assay in L3.6pl cells; assay type: cell-based, human; details: for EC value in Ant44 (3 μM) assay: Table 9, ECx = y: x% effect at y μM; for EC50: Homo sapiens, L3.6pl
Protocol: For example, in the ANT44 assay an EC48=9 means that the PTI molecule at 9 μM was able to block 48% of the Ant44 entry into L3.6 pl human Pancreatic ductal adenocarcinoma cells after 72 h incubation time at 37° C. Another explanation, is that the PTI was able to disrupt […] of the intracellular trafficking of Ant44 that leads to toxicity. Recall a polyamine transport inhibitor can work at any one (or more than one) of the different steps involved in the multi-step polyamine import and intracellular trafficking process. Blocking the entering spermidine from reaching its intended intracellular target is another way in which these compounds may function.
as §1

[4] = test system: CHO cells; assay: Ant44 rescue assay in CHO cells (Assay 1); assay type: cell-based, Chinese hamster; details: for EC50 / IC50: Cricetulus griseus; for Active in Ant44 assay?: Table 2, in CHO
Protocol: CHO K1 cells were grown in growth medium (RPMI+10% FBS+1×P/S+1% l-glutamine) to 70% confluency, washed in PBS and trypsinized. Cells were plated in assay medium (serum free RPMI+2% FBS+1×l-glutamine+1×P/S+[…] aminoguanidine) at 50000 cells/mL for 200 cells per well in 4 ul using a Thermo Multidrop Combi into a 1536-well white Aurora plate.
Ant44 is a cytotoxic polyamine, i.e., N^1-(9-anthracenyl)-homospermidine. A non-toxic PTI compound would block entry or intracellular trafficking of the Ant44 toxin and rescue the cells back to high viability. Therefore, this screen tested for compounds which rescued cells from Ant44 toxicity. […] This was followed by adding 10 uL of 10 uM Ant44 (FAC 2 uM) in assay medium with a Beckman BioRAPTR FRD dispenser or 10 uL of cells added in assay medium (positive control).

[5] = test system: CHO cells; assay: Cytotoxicity screen in CHO cells; details: for IC50 at 48 h: Chinese hamster, CHO K1 cells
Protocol: CHO K1 cells were grown in growth medium to 70% confluency and washed in PBS and trypsinized. […] Cells were spun at 100×g for 1 minute and incubated at 37° C. in a humidified CO2 incubator for 24 hours. […] Cellular ATP content was then assayed by adding 3 uL of ATPLite with a Beckman BioRAPTR FRD dispenser and incubated for 10 minutes at room temperature. Plates were spun at 200×g for 1 minute and read on a Perkin Elmer Viewlux multimode plate reader using luminescence mode. This assay was used for testing dose-response of dry powders.
CHO K1 cells were grown in growth medium to 70% confluency and washed in PBS and trypsinized. Cells were plated in assay medium at 10000 cells/mL for 200 cells per well using a Thermo Multidrop Combi in 20 uL into a white Greiner plate. Cells were spun at 100×g for 1 minute and incubated at 37° C. in a humidified CO2 incubator for 24 hours. […] This was followed by adding by 10 μL of assay medium to all wells with a Beckman BioRAPTR FRD dispenser. The plates were spun at 200×g for 1 minute and incubated at 37° C. in a humidified 5% CO2 incubator for 48 hours. Cellular ATP content was then assayed by adding 20 μL of ATPLite with a Beckman BioRAPTR FRD dispenser and incubated for 10 min at room temperature. Plates were spun at 200×g for 1 minute and read on a Perkin Elmer Envision for multimode plate reader using luminescence mode. Duplicates were run for each compound concentration, and the curves represent the average of the duplicates as percent viability.
The final compound concentration was either 20 μM or 10 μg/mL (depending upon the compound source). A successful PTI in Assay 1 would block the uptake of the toxic Ant44 probe and rescue the cells back to >90% relative growth vs an untreated control. It was critical to also evaluate the toxicity of the PTI by itself as a toxic PTI would give a false negative in Assay1 (and a false positive in Assay 2). […] Assay 2 then evaluated the ability of the compound to inhibit the uptake of a rescuing dose of Spermidine (Spd, 1 μM) into DFMO-treated CHO cells.

[6] = test system: DFMO treated Chinese hamster ovary (CHO) cells; assay: DFMO/spermidine rescue assay in CHO cells (Assay 2); assay type: cell-based; details: for activity in DFMO assay: CHO cells; for EC50 / IC50: Cricetulus griseus, CHO; for EC50: Table 2
Protocol: In the reconfirmation assay compounds were run in quadruplicate. […] A PTI compound is expected to block the entry or disrupt the intracellular trafficking of spermidine and inhibit the ability of spermidine to rescue the growth or viability of DFMO treated cells.
DFMO/Spermidine assay Here cells were treated with an inhibitor of polyamine biosynthesis (DFMO) and rescued back to high viability by the presence of exogenous polyamine (spermidine). Putative PTI compounds were screened for their ability to block the entry or intracellular trafficking of exogenous spermidine (or otherwise disrupt the intracellular trafficking of spermidine) by measuring cell viability in the presence of DFMO+spermidine+PTI compound. […] This was followed by adding 10 μL of […] and 5 μM spermidine (FAC 5 mM DFMO and 1 μM spermidine) in assay medium with a Beckman BioRAPTR FRD dispenser or 10 μL of 5 mM DFMO added in assay medium (positive control). […] A PTI compound is expected to block the entry or disrupt the intracellular trafficking of spermidine and inhibit the ability of spermidine to rescue the growth or viability of DFMO treated cells Cytotoxicity

[7] = 72 h, Table 9, read-out: 72 h IC50
[8] = CHO, Table 7, read-out: SAR IC50 Ant44 assay
[9] = Homo sapiens, Table 2, DFMO rescue in L3.6pl
[10] = Table 4B, read-out: DFMO/CHO IC50
[11] = Table 7, read-out: SAR IC50 DFMO assay
[12] = read-out: IC50 values (toxicity profile)
[13] = relative growth after 72 h, read-out: L3.6pl IC50

Compound | IC50 [1, 7] [µM] | MTD ([1]; Table 9) [µM] | EC value in DFMO/Spd rescue assay [2] | EC value in Ant44 (3 μM) assay [3] | IC50 [4, 8] [µM] | IC50 at 48 h [5] [µM] | IC50 [6, 11] [µM] | also measured
O=C(Nc1ccc(N2CCC(Oc3ccccc3)CC2)cc1C(=O)O)c1cc2ccccc2o1 | 44.4 ± 0.04 | 10 | EC30 =10 μM | EC7 = 10 μM |  |  |  | 
O=C(Nc1ccc(N2CCC(Oc3ccccc3)CC2)cc1C(=O)O)c1cc2ccccc2[nH]1 | 38.3 ± 0.04 | 10 | EC30 = 9 μM | not working as a PTI |  |  |  | 
Cl.O=C(Nc1ccc(N2CCNCC2)cc1C(=O)O)c1ccco1 | > 50 | 40 | EC10 = 40 μM | EC22 = 40 μM |  |  |  | 
O=C(Nc1ccc(N2CCC(Oc3ccccc3)CC2)cc1C(=O)O)c1cccnc1 | > 50 | 10 | EC25 = 8 μM | Not working |  |  |  | 
O=C(Nc1ccc(N2CCC(Oc3ccccc3)CC2)cc1C(=O)O)c1ccc(-c2ccc(Cl)cc2)o1 | > 1 | 1 | EC6 = 1 μM | Not working |  |  |  | 
O=C(Nc1ccc(F)cc1C(=O)O)c1ccco1 | > 100 | >100 | EC67 = 100 μM | EC36 = 50 μM |  |  |  | 
COc1ccccc1C(=O)Nc1ccc(N2CCC(c3ccccc3)CC2)cc1C(=O)O [SBI-0814418, 2-(2-methoxybenzamido)-5-(4-phenylpiperidin-1-yl)benzoic acid] |  |  |  |  | 18 | > 40 | 21 | activity in Ant44 assay ([4]; CHO cells): modest activity; EC50 ([4]; CHO, Table 2, Active in Ant44 assay?, read-out: Ant44 assay EC50 in CHO): 19 µM; IC50 ([4]; Table 4B, CHO cells, read-out: Ant44 IC50): 19 µM; Active in Ant44 assay? [4]: Yes; L3.6pl MTD ([1]; Table 2): 5 µM; L3.6pl MTD ([1]; Table 4B): (5-10) μM; L3.6pl MTD cell: percentage at 10 μM ([1]; at 10 μM): 80%; general toxicity ([5]; CHO cells): without general toxicity; CHO MTD ([5]; hamster): >32 µM; activity in DFMO assay run in L3.6 pl [2]: micromolar activity; EC50 [2, 9]: 5 µM; activity in DFMO assay [6]: modest activity; EC50 [6]: 21 µM; IC50 [6, 10]: 21 µM; Active in Ant44 assay? ([3]; Table 2, in L3.6pl): no
O=C(Nc1ccc(N2CCN(c3ccccn3)CC2)cc1C(=O)O)c1ccco1 [SBI-0814419, 2-(furan-2-carboxamido)-5-(4-(pyridin-2-yl)piperazin-1-yl)benzoic acid] |  |  |  |  | > 40 | > 40 | > 40 | EC50 ([4]; CHO, Table 3, read-out: Ant44 rescue EC50 CHO): > 32 µM; Ant44 IC50 ([4]; Table 5B, CHO cells): trace; IC50 [1, 12]: > 38 µM; IC50 [1, 13]: > 50 µM; MTD L3.6pl ([1]; Table 3): >20 µM; L3.6pl MTD ([1]; Table 5B): (>10) uM; L3.6pl MTC [1]: 12 µM; MTD CHO ([5]; hamster): >32 µM; worked in Assay 2 (DFMO) [2]: performed in both assays; Active in DFMO assay? ([2]; Table 3, in L3.6pl): No in CHO and in L3.6pl; Active in DFMO assay? ([6]; Table 3, in CHO): No in CHO and in L3.6pl; worked in Assay 1 (Ant44) [3]: performed in both assays; EC50 ([3]; Table 3, read-out: Ant44 rescue EC50 L3.6pl): 10 µM; EC50 ([3]; Table 5B, Ant44 blockade, read-out: L3.6pl EC50): 10 µM
COc1ccccc1C(=O)Nc1ccc(N2CCC(Oc3ccccc3)CC2)cc1C(=O)O [SBI-0814420, 2-(2-methoxybenzamido)-5-(4-phenoxypiperidin-1-yl)benzoic acid] |  |  |  |  | 32 | > 40 | 19 | IC50 [1, 12]: > 38 µM; IC50 [1, 13]: 38.6 ± 0.06 µM; L3.6pl MTC [1]: 10 µM; worked in Assay 2 (DFMO) [2]: performed in both assays; worked in Assay 1 (Ant44) [3]: performed in both assays
COc1ccccc1C(=O)Nc1ccc(N2CCN(Cc3ccccn3)CC2)cc1C(=O)O [SBI-0814421, 2-(2-methoxybenzamido)-5-(4-(pyridin-2-ylmethyl)piperazin-1-yl)benzoic acid] |  |  |  |  | > 40 | > 40 | 10 | Active in Ant44 assay? [4]: No in CHO; L3.6pl MTD ([1]; Table 2): 10 µM; L3.6pl MTD ([1]; Table 4B): (10) μM; CHO MTD ([5]; hamster): >20 µM; EC50 [2, 9]: > 10 µM; EC50 ([2]; Table 4B, DFMO-spermidine rescue): > 10 µM; activity in DFMO assay [6]: some level of activity; EC50 [6]: 20 µM; IC50 [6, 10]: 9.5 µM
COc1ccc(C(=O)Nc2ccc(N3CCN(c4cc(Cl)ccc4C)CC3)cc2C(=O)O)cc1 [drawing 134] | 16.8 ± 0.1 | 8 | EC49 = 8 μM | EC21 = 8 μM |  |  |  | 
COc1ccc(C(=O)Nc2ccc(N3CCN(c4cc(Cl)ccc4C)CC3)cc2C(=O)O)c(OC)c1 [drawing 135] | > 50 | >20 | EC15 = 20 μM | inactive |  |  |  | 
COc1ccccc1C(=O)Nc1ccc(N2CCN(c3cc(Cl)ccc3C)CC2)cc1C(=O)O [drawing 136] | 29.1 ± 0.03 | >5 | EC29 = 5 μM | not working as a PTI |  |  |  | 
